Assay [1] concerns the target Serine/threonine-protein kinase 4 (Homo sapiens) (UniProt Q13043). In words: Inhibition of MST1 Lys1 labeling site harbouring ETGQIVAIKQVPVESDLQEIIK in human A-375 cells at 0.05 uM by KiNativ Profiling analysis relative to control.
Assay [2] deals with Ephrin type-A receptor 8 (Homo sapiens) (UniProt P29322). Briefly: Inhibition of EPHA8 (unknown origin) at 1 uM by Ambit Kinomescan binding assay relative to control; values are per cent of control.
Assay [3] addresses Protein kinase C eta type (Homo sapiens) (UniProt P24723). In words: Inhibition of PRKCH (unknown origin) at 1 uM by Ambit Kinomescan binding assay relative to control; values are per cent of control.
Assay [4] addresses Mitogen-activated protein kinase kinase kinase 9 (Homo sapiens) (UniProt P80192). Briefly: Inhibition of MLK1 (unknown origin) at 1 uM by Ambit Kinomescan binding assay relative to control; values are per cent of control.
Assay [5] has as its target Interferon-induced, double-stranded RNA-activated protein kinase (Homo sapiens) (UniProt P19525). Briefly: Inhibition of PKR Lys2 labeling site in human A-375 cells at 0.05 uM by KiNativ Profiling analysis relative to control. It counts as cell-based.
Assay [6] has as its target T1, Serine/threonine-protein kinase Nek1 (Homo sapiens) (UniProt Q96PY6).
T1 sequence (whole entry): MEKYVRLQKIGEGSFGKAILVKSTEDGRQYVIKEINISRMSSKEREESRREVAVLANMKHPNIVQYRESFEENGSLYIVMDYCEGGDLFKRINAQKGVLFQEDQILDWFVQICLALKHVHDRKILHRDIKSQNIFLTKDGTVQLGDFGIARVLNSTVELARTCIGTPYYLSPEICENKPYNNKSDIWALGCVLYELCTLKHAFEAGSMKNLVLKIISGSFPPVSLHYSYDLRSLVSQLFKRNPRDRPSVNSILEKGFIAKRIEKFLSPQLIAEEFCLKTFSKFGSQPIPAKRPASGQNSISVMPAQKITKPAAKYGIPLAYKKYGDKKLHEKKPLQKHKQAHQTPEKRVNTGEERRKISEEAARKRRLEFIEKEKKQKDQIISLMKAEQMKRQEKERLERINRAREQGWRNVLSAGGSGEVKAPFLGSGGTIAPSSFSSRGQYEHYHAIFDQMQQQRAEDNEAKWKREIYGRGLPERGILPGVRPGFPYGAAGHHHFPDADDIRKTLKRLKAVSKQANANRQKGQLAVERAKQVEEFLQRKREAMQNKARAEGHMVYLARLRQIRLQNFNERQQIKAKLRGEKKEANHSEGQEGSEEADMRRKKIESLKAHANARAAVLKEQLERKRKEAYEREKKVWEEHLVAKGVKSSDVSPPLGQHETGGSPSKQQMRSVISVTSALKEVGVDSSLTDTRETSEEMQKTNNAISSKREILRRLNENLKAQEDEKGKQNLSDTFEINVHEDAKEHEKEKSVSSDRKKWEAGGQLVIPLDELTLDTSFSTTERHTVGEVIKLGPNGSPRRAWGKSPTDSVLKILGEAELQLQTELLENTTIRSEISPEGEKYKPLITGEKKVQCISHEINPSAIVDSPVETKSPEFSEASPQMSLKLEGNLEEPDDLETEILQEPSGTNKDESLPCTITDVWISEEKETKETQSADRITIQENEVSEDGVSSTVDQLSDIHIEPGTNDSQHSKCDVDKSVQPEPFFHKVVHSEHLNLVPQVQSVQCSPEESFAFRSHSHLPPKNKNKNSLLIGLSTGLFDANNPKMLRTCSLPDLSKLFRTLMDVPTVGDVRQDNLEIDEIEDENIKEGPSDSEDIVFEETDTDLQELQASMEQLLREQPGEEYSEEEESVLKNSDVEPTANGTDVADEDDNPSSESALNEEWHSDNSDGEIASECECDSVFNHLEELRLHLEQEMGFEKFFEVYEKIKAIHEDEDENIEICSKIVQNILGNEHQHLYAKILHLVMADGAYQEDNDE
In words: Inhibition of NEK1 Lys2 labeling site in human A-375 cells at 0.05 uM by KiNativ Profiling analysis relative to control. It counts as cell-based.

Assay [7] deals with Serine/threonine-protein kinase MRCK beta (Homo sapiens) (UniProt Q9Y5S2). Briefly: Inhibition of MRCKB (unknown origin) at 10 uM by Ambit Kinomescan binding assay.
Serine/threonine-protein kinase MRCK beta (Homo sapiens), sequence (Q9Y5S2 whole entry): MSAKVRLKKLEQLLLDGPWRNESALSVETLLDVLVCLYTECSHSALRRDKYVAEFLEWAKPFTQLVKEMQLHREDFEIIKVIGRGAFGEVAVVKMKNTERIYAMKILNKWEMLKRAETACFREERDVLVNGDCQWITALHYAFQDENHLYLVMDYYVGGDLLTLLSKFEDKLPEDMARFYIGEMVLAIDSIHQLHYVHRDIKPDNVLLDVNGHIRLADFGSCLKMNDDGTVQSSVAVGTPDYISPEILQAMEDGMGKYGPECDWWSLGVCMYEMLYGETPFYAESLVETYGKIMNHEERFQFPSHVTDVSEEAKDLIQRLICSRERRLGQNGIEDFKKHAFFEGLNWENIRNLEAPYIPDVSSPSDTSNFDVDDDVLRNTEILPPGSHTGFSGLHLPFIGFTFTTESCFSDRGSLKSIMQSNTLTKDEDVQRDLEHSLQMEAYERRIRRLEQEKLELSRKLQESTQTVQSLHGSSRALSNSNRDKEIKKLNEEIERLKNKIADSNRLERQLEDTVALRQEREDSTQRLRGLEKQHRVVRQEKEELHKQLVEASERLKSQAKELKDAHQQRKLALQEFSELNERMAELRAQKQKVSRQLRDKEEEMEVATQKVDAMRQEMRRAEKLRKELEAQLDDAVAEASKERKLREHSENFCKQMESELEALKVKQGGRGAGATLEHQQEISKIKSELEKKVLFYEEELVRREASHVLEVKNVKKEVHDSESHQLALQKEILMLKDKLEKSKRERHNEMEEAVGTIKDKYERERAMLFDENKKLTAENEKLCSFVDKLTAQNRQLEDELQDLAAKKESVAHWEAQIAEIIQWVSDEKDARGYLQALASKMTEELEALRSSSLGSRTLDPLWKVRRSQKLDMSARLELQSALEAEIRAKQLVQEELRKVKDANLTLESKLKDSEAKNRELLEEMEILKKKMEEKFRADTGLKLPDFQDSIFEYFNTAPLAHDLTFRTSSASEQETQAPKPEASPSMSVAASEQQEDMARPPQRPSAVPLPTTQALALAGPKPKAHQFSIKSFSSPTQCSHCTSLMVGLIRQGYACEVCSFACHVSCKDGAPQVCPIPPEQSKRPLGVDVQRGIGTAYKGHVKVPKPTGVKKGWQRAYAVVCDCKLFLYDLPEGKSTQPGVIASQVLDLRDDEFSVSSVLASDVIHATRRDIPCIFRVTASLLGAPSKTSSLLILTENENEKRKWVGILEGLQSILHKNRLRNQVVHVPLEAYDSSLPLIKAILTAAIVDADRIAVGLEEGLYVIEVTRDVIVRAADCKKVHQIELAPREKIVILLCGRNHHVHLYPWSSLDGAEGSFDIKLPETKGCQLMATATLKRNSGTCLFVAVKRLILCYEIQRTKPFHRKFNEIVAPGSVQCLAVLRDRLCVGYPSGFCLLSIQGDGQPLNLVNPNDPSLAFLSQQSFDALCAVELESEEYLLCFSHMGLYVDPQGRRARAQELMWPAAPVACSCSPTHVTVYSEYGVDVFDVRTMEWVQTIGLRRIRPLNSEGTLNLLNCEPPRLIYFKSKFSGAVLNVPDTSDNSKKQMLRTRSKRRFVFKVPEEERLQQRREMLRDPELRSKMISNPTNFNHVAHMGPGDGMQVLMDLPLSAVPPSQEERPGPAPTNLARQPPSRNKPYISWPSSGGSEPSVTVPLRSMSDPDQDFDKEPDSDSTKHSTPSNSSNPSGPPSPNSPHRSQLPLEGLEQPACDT
In assay [8] the target is RPS6KA1/RPS6KA2/RPS6KA3 (Homo sapiens) (UniProt P51812+Q15349+Q15418). Briefly: Inhibition of RSK1/2/3 Domain 1 K2 labeling site harbouring DLKPENILLDEEGHIK in human Huh-7 cells at 10 uM by KiNativ Profiling analysis relative to control. It counts as cell-based.
The target in assay [9] is T2, Phosphorylase b kinase gamma catalytic chain, liver/testis isoform (Homo sapiens) (UniProt P15735).
T2 sequence (whole entry): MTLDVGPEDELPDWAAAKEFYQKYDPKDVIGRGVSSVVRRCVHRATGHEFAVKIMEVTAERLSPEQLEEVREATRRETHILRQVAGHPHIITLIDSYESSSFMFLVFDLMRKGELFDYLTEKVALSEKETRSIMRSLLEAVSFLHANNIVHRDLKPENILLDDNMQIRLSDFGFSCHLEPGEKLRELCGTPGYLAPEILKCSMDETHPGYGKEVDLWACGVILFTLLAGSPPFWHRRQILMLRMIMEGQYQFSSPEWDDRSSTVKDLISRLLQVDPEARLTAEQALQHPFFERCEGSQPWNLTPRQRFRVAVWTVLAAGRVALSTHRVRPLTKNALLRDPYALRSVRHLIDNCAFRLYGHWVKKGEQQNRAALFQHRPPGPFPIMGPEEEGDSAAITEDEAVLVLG
Briefly: Inhibition of PHKg2 Lys1 labeling site in human Huh-7 cell lysate at 1 uM by KiNativ Profiling analysis relative to control. It counts as subcellular.

Assay [10] concerns the target Serine/threonine-protein kinase WNK4 (Homo sapiens) (UniProt Q96J92). In words: Inhibition of Wnk4 Lys2 labeling site in human Huh-7 cells at 1 uM by KiNativ Profiling analysis relative to control. It counts as cell-based.

The source made the active and inactive calls. The calls are words filed in the database; no cut-off is given here.

Protein kinase C eta type (Homo sapiens), sequence (P24723 whole entry): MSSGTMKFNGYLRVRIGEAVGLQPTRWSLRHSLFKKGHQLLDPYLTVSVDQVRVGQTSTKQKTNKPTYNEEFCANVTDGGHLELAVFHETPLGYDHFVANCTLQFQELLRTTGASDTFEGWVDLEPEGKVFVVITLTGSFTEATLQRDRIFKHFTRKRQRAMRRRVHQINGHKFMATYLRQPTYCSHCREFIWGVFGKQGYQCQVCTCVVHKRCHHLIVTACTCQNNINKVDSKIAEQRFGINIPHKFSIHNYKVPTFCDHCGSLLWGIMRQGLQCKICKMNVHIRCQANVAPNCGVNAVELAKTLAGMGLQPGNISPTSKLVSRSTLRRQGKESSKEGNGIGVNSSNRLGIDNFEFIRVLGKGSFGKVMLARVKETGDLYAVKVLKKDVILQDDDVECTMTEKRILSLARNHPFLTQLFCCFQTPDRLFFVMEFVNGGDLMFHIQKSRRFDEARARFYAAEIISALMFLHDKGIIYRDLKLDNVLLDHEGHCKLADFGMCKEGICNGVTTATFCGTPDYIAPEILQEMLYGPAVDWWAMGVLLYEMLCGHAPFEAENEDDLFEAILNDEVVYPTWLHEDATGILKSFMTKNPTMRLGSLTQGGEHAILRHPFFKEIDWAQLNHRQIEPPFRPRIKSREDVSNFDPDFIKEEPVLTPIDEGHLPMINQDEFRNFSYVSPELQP
Mitogen-activated protein kinase kinase kinase 9 (Homo sapiens), sequence (P80192 whole entry, looked up): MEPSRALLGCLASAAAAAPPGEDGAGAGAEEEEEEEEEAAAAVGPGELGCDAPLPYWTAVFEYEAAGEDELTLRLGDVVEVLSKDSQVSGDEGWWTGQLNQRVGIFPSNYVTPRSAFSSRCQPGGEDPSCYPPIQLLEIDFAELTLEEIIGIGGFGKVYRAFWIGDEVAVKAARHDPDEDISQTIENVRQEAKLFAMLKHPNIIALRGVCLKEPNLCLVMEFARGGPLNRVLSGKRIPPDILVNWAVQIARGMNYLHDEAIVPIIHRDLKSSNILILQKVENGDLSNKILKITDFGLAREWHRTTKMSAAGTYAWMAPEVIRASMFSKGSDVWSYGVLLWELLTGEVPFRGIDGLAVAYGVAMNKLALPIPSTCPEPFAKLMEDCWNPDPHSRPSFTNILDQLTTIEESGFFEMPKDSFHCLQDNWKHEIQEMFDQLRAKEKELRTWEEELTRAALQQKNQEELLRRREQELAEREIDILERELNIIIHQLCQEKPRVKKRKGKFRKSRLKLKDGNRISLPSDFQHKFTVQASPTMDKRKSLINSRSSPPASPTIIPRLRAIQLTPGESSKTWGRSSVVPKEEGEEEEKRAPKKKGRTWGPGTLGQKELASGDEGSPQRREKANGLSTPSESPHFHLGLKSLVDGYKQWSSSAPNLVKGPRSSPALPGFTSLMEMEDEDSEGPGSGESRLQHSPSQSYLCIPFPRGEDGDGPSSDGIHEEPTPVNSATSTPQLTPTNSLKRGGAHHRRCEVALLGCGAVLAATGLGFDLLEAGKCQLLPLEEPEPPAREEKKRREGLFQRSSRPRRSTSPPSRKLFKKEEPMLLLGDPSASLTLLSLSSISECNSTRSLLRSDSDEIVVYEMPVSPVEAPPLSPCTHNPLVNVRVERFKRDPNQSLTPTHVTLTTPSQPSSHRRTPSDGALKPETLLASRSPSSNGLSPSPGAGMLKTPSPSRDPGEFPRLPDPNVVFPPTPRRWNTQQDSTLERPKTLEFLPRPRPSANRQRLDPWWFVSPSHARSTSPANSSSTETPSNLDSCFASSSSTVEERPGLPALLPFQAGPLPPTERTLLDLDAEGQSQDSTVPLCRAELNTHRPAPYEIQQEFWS
Serine/threonine-protein kinase 4 (Homo sapiens), sequence (Q13043 whole entry, looked up): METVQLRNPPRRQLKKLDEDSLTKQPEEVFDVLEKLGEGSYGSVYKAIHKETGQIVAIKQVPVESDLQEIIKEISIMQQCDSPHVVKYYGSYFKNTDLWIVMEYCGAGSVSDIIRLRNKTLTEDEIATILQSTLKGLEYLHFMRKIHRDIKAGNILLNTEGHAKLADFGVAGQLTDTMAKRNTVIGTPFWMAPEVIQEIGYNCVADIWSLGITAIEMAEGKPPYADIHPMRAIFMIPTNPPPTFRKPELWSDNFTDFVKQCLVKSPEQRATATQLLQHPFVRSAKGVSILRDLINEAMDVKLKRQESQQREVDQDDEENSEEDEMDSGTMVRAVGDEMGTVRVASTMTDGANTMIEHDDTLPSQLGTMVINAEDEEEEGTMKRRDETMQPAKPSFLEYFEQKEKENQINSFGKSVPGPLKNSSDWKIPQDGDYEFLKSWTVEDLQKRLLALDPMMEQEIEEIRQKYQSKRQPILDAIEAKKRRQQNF
Ephrin type-A receptor 8 (Homo sapiens), sequence (P29322 whole entry): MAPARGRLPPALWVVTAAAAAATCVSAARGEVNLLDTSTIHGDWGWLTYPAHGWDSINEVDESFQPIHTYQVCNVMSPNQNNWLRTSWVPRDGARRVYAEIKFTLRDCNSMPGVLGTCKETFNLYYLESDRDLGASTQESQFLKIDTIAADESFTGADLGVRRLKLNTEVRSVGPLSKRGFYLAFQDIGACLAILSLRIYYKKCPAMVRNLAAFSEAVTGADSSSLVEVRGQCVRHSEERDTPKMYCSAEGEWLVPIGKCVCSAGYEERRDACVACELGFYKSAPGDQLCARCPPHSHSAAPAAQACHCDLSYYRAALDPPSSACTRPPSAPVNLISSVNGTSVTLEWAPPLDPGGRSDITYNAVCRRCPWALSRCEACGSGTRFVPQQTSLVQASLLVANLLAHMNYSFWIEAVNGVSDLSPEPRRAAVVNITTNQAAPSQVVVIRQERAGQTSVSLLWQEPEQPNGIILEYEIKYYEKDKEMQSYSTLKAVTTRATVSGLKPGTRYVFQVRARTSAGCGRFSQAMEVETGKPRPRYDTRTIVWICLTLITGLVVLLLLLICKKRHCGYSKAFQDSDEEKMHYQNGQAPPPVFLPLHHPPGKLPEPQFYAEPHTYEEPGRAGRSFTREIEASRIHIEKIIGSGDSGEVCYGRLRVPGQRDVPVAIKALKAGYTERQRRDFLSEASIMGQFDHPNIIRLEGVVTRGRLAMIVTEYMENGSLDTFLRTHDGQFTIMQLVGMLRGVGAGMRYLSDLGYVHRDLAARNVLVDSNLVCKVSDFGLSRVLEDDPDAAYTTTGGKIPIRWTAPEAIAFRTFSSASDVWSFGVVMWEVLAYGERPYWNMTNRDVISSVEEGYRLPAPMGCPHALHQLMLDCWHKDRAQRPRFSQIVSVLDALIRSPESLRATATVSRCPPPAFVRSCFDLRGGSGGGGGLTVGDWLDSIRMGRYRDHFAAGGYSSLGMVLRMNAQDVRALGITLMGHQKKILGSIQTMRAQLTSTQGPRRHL

As usually defined, the inhibition is the drop in the measured response relative to a control, in per cent. As for `CCN1CCN(Cc2ccc(NC(=O)c3ccc(C)c(/C=C/c4cnc5[nH]ccc5c4OC)c3)cc2C(F)(F)F)CC1`, the inhibition in [1] came out at 11.9%. Also, the residual activity in [2] was 0.35%; in assay [3], 100%; in assay [4] it was 4.7%.

For the compound `CCN1CCN(Cc2ccc(NC(=O)c3ccc(C)c(Oc4ccnc5[nH]ccc45)c3)cc2C(F)(F)F)CC1`, the inhibition in assay [5] is -8.1%; in assay [6], -7.1%; in [8] it was 8.7%. Moreover, the inhibition entry in [7] is “inactive”.

In the case of `CNc1cc(Oc2cc(C(=O)Nc3cc(N4CCN(C)CC4)cc(C(F)(F)F)c3)ccc2C)ncn1`, the inhibition in assay [9] was 0.2%; in [10] it was 44.2%.

The values are drawn from ChEMBL document CHEMBL5696442, “Discovery of type II inhibitors of TGFβ-activated kinase 1 (TAK1) and mitogen-activated protein kinase kinase kinase kinase 2 (MAP4K2)” (J Med Chem, 2015).
